One data set relates to HDF. Description: Cytotoxicity of PTβR2I on dermal fibroblasts. The data set is classed as cell-based, human. Set-up: dose or concentration left out as unconfirmed. The conditions noted are these: 1 to 100.
In data set [1] the test system is HaCaTs. Description: 2D scratch migration assay, HaCaT. The conditions noted are these: high glucose and TGFβ1, 48 hours. In kind it is cell-based, human. How it is done: (§1) HDFs, HaCaTs, and HAECs were cultured in 6-well plates using serum-free high glucose (4.5 g/L) basal medium with 1% P/S. After the cells reached confluency, a 200-μL pipet tip was used to scrape the cell monolayer. Then 3 mL of medium containing TGFβ1 (10 ng/ml) or TGFβ1 (10 ng/ml)/PTβR2I (10 μg/mL) was added to the wells. The cells were imaged at predetermined time points using a bright-field microscope. The distances between the scratch walls were measured using ImageJ to calculate the migration ratio

Another data set concerns HDFs. Description: Cell proliferation (dsDNA) under high glucose and TGFβ1, HDF. In kind it is cell-based, human. The settings on record: high glucose, TGFβ1 10 ng/ml, PTβR2I 10 μg/mL; p<0.001. How it is done: (§2) HDFs, HaCaTs, and HAECs were seeded in 96-well plates at respective densities of 1.5×10^4 cells/mL, 2×10^4 cells/mL, and 2×10^4 cells/mL. High glucose (4.5 g/L) basal medium with 1% P/S was used for the culture. After 24 hours, TGFβ1 (10 ng/ml) or TGFβ1 (10 ng/ml)/PTβR2I (10 μg/mL) was added to the medium. The culture continued for three days. The medium was then replaced by papain solution and incubated at 60° C. for 24 hours. The dsDNA content was tested using a Quant-iT™ PicoGreen dsDNA Assay Kit (Invitrogen).

The subject of data set [2] is HAECs. Description: mRNA expression (RT-PCR), HAECs. The data set is classed as cell-based, human. The conditions noted are these: high glucose and TGFβ1. How it is done:
To determine the mRNA expression of the cells (HDFs, HaCaTs, and HAECs) treated with TGFβ1 (10 ng/ml) or TGFβ1 (10 ng/ml)/PTβR2I (10 μg/mL) under high glucose conditions, RNA was extracted using Trizol (Invitrogen) and reverse transcribed using a cDNA synthesis kit (Applied Biosystems). Gene expression was performed by real-time RT-PCR, using Maxima SYBR Green/Fluorescein Master Mix (Thermofisher) and selected primer pairs, shown in Table 1 below. β-actin served as the housekeeping gene. The ΔΔCt method was used for data analysis.

Data set [3] deals with HAECs. Put plainly: 2D scratch migration assay, HAEC. In kind it is cell-based, human. The settings on record: high glucose and TGFβ1, 36 hours. The method, then:
as §1

Data set [4] relates to human keratinocyte HaCaT cells. Put plainly: Cytotoxicity of PTβR2I on HaCaT cells. The data set is classed as cell-based. More on the design: dose or concentration left out as unconfirmed. The conditions noted are these: 1 to 100.
Data set [5] concerns HaCaTs. Description: Cell proliferation (dsDNA) under high glucose and TGFβ1, HaCaT. The conditions noted are these: high glucose, TGFβ1 10 ng/ml, PTβR2I 10 μg/mL; p<0.05. The data set is classed as cell-based, human. The method, then:
as §2

In a further data set the test system is TGFβ1/p-Smad2/3 pathway. Description: Immunoblotting/IF of p-Smad2/3 and α-SMA in HDFs. The data set is classed as cell-based, human. The method, then:
For in vitro tests, protein lysates were collected from HDFs. Pre-cooled cell scrapers were used to detach the cells, and the cells were re-suspended in RIPA lysis buffer with the inhibitor cocktail. For in vivo tests, wound skin tissues were washed three times with pre-cooled DPBS, dissected into small pieces, and re-suspended in RIPA lysis buffer containing protease and phosphatase inhibitors. Homogenization was then performed thereafter with an ultrasonic processor (Cole Parmer). After centrifugation at 12,000 g for 20 min, the supernatants were collected, and protein concentrations were measured using a Bradford protein assay kit (Bio-rad).
The protein samples were separated by 10% Mini-PROTEAN TGX stain-free precast gels (Bio-rad) and transferred onto an immune-blot PVDF membrane. The blots were washed three times with DPBS containing 0.1% Tween 20 (PBST), blocked with 5% milk powder in PBST buffer for 40 min, and incubated with primary antibodies at specific dilutions overnight at 4° C. The primary antibodies included rabbit GAPDH antibody (1:5000, Cell signaling), rabbit anti-a-smooth muscle actin (α-SMA) antibody (1:2000, Cell signaling), rabbit anti-phospho-Smad2(Ser465/467)/Smad3 (Ser423/425) (1:500, Cell signaling), and rabbit anti-phospho-p38 (1:500, Cell signaling). The membranes were washed three times with PBST and incubated with horseradish peroxidase (HRP)-conjugated secondary antibodies (1:2500). Immunoblots were then washed with PBST and detected with a WesternBright HRP substrate detection kit (Advansta). The ChemiDoc XPS+system (Bio-rad) was used to image the blots.

For data set [6], the system named is human aortic endothelial cells (HAEC). Description: Cytotoxicity of PTβR2I on endothelial cells. More on the design: dose or concentration left out as unconfirmed. In kind it is cell-based.
The next data set addresses T1, TβR2 on HDFs (Homo sapiens, UniProt P37173).
T1 construct: host or cells: human dermal fibroblasts (HDFs)
Put plainly: PTβR2I binding and competitive binding with TGFβ1 on HDFs (IF anti-TβR2, FITC intensity). In kind it is cell-based. The conditions noted are these: 48 hours. The method, then:
To test PTβR2I binding to cells, HDFs (Lonza) were seeded on type I collagen-coated cover glasses and inserted in a 6-well plate. After 24 hours, the following treatments were added into the wells: 1) PTβR2I solution (10 μg/mL) for 48 hours; 2) PTβR2I solution (10 μg/mL) for 24 hours, and then TGFβ1 (10 ng/ml) for another 24 hours; 3) TGFβ1 (10 ng/mL) for 24 hours, and then PTβR2I (10 μg/mL) for another 24 hours; and 4) both PTβR2I (10 μg/mL) and TGFβ1 (10 ng/ml) for 48 hours. Control wells contained HDF-seeded cover glasses without added PTβR2I or TGFβ1, and incubated for 48 hours. After the treatment, cells were fixed by 4% paraformaldehyde and blocked with 10% goat serum in Dulbecco's phosphate-buffered saline (DPBS). Primary antibody mouse anti-TβR2 (1:300, Santa Cruz) that was diluted in DPBS containing 3% BSA was incubated with the cells overnight at 4° C. The cells were washed three times with DPBS. A secondary antibody Alexa Fluro-647 (1:300, Fisher Scientific) was then applied for 2 h at room temperature, followed by incubating with DAPI (Millipore-Sigma) for five minutes.
To validate the above results, the fluorescence intensity of PTβR2I bound to the HDFs was measured for each treatment. Briefly, HDFs (Lonza) were seeded on type I collagen-coated 96-well black microplates. […] The fluorescence intensity was measured using the same microplate reader.

Each structure is given as a SMILES string. Bridge positions count the residues as written; N and C are the ends. Peptide text beside a SMILES is read from it. * marks the point of attachment. FITC = O=C1OC2(c3ccc(O)cc3Oc3cc(O)ccc32)c2ccc(NC(=S)*)cc21

T1 sequence (P37173 23-567): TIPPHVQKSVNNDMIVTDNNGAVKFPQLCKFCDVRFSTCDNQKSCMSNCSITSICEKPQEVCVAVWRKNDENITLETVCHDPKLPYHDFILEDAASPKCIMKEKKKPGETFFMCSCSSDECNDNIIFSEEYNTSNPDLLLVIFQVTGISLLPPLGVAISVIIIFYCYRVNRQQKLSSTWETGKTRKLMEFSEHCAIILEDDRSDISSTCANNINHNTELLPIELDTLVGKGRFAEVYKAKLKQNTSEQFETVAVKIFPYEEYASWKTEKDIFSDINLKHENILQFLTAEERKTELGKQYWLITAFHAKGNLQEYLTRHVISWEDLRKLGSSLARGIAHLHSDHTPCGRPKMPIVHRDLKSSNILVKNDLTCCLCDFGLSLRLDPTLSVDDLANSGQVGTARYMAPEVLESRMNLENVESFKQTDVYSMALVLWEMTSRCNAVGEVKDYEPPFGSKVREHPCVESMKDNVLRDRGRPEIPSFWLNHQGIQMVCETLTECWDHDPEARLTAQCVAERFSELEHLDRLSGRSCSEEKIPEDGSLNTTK

Consider `CC(C)C[C@@H]1NC(=O)CNC(=O)[C@@H](NC(=O)[C@@H](N)CCC(=O)O)CSSC[C@@H](C(=O)N[C@@H](CCCCNC(=S)Nc2ccc3c(c2)C(=O)OC32c3ccc(O)cc3Oc3cc(O)ccc32)C(=O)O)NC(=O)[C@H](CC(C)C)NC(=O)[C@H](CCCNC(=N)N)NC(=O)[C@H](Cc2c[nH]c3ccccc23)NC(=O)[C@H](C(C)C)NC(=O)[C@H](CCCNC(=N)N)NC(=O)[C@H](CC(=O)O)NC(=O)[C@@H]2CCCN2C(=O)[C@H](CCCNC(=N)N)NC(=O)CNC(=O)[C@H](C(C)C)NC(=O)[C@@H]2CCCN2C(=O)[C@H](CC(C)C)NC1=O` [PTβR2I, ECGLLPVGRPDRVWRLCK-FITC] (H-ECGLLPVGRPDRVWRLCK(FITC)-OH; disulfide 2-17; N-terminus and C-terminus assumed), for which the cell viability result (in the data set on HDF; in [4]; in [6]) was “no decrease in viability” in each case. The migration entry in the data set with HaCaTs [1] and with HAECs [3] was “significantly higher number of cells had migrated” throughout. In addition, the “proliferation (dsDNA, day 3)” value in the data set on HDFs and in the data set with HaCaTs [5] was “Significantly improved proliferation” each time. In the data set on HAECs [2], the HGF gene expression entry is “significantly enhanced”. In addition, the VEGFA gene expression entry in the data set on HAECs [2] was “significantly enhanced”. Moreover, in the data set with TGFβ1/p-Smad2/3 pathway (high glucose), the “phosphorylation of Smad2/3, PTβR2I with TGFβ1 vs TGFβ1 alone” value is listed as “no substantial difference”. Further, in the data set on TGFβ1/p-Smad2/3 pathway (high glucose), the “α-SMA+ myofibroblast formation in presence of TGFβ1” value is on record as “regardless of the addition of PTβR2I”. In addition, the “expression of downstream marker α-SMA” value in the data set on TGFβ1/p-Smad2/3 pathway (high glucose, TGFβ1) was “did not alter”. Further, the TGFβ1/p-Smad2/3 pathway result in the data set on TGFβ1/p-Smad2/3 pathway (normal glucose) is reported as “apparently inhibited”. For the same compound, the “fluorescent intensities of FITC-labeled PTβR2I whichever of PTβR2I or TGFβ1 bound first” value at TβR2 on HDFs is given as “consistent”.

The values above are taken from US20240181125A1, “COMPOSITIONS AND METHODS FOR SCARLESS WOUND HEALING IN DIABETES” (Washington University, priority 2022, published 2024).
